Values after ≈ are worked out from the molar mass of the structure shown.
Legend:
[1] = tested on: colorectal carcinoma (HCT116); assay: Cytotoxic MTT assay, HCT116; type: cell-based, human
Procedure: MTT protocol was performed to study the viability of cells after treatment with the tested compounds. The studied cell lines (A549 and HCT116) were cultured and grown in RPMI‐1640 media, while HFB4 cells were reserved in DMEM‐F12 media. Both media were supplemented with 10% FBS, 1% L‐glutamine, and 1% antibiotic–antimycotic mixture. The cell lines were grown at conditions of 37 °C and 5% CO2. 10 × 10^3 of A549, and HCT116 cells and the same count of normal melanocytes (HFB4) were cultured in a 96‐well plate. The selected cultured cells were kept at 37°C and 5% CO2 overnight. Then, the medium was discarded after 24 h of incubation, and 100 µL from different concentrations of the studied compounds dissolved in fresh medium without serum, with final concentrations of 100, 50, 25, 12.5, 6.25, 3.125, 1.56, and 0.78 µg/mL was added. The treated cells were then incubated for 48 h. After that, 50 µL of MTT was added into each well for 4 h for the formazan crystals to be formed. Finally, 200 µl of 10% sodium dodecyl sulphate (SDS) was added to each well, and plates were kept at room temperature overnight to allow the reaction to be stopped. The optical density at 575 nm was read using a microplate multi-well reader, and the percentage of cell viability was calculated. The dose–response curve was drawn to calculate the IC50 values for each compound using the prism GraphPad 5 program, [84]. 5 Fluorouracil, a commercial anticancer drug was used as a reference drug (positive control). Negative untreated cell control was used in this assay.

[2] = tested on: p53; assay: RT-PCR gene expression, p53, in HCT116; type: cell-based, human; details: HCT116, 6.76 µg/mL, 48 h, relative to untreated control
Procedure: In this current research, relative gene expression related to apoptosis should be studied well because they were very interesting to understand the effect of our selected compound on this important biological process. HCT116 cells were treated with chalcone 7f (6.76µg/mL) for 48 h, and then subjected to qPCR analysis regarding control samples. The effect of chalcone 7f on the expression level of (Bax, p53, Bcl2, and CDK4) genes was assessed using the qPCR technique. […] As indicated in this schematic diagram, the expression of apoptotic genes (Bax and P53) was enhanced by the effect of chalcone 7f to reach (3.662, and 5.435) respectively, relative to the control.
Total RNA was extracted from the compound 7f-treated HCT116 cells and the untreated cells using the RNA Purification Kit GeneJET (Thermo scientific, ON, Canada) 0.1 µg of the extracted RNA was reverse transcribed into complementary DNA (cDNA) using High-Capacity cDNA Reverse Transcription Kit (Thermo Scientific, ON, Canada). qPCR was done using Brilliant SYBR Green qPCR master mix (Applied Biosystems, San Francisco, CA, USA) in One Step Plus Real-Time PCR System (Applied Biosystems, San Francisco, CA, USA). […] The relative gene expression was determined using the 2^−ΔΔCt equation after normalization to the expression of β-actin (housekeeping gene) (Qiagen, CA, USA)(10 pmol/µL)[85], [86]. […]

[3] = tested on: Human caspase-3; assay: ELISA caspase 3 production in HCT116; type: cell-based; details: HCT116, 7f at its IC50 value
Procedure: Apoptosis is known and identified by specific characterizations in which the activation of caspases plays an important role. In apoptotic pathways, mechanisms of (activation/inactivation) of these proteins are not fully understood. The significance of understanding the mechanistic machinery that controls programmed cell death, being initiated by various chemotherapeutic agents is very critical and attracts the attention of researchers in this area. In this assay, cells were incubated in the absence or presence of 7f with varying concentrations (39, 78, 156, 313, 625, 1250, and 2500 ng/ml), inducing a concentration-dependent increase in caspase3 production in HCT116. […] A concentration of 7f was used at its IC50 value and compared directly to the control. […] However, there was only 103.5 pg/ml induced by control cells. It was interesting to note that chalcone 7f stimulated the production of caspase 3 protein in HCT116 cells 4.8-fold compared to control as outlined in Fig. 7.
The quantitative measurements of Human caspases-3, -8, and -9 concentrations in HCT116 cell culture lysates were performed using ELISA assay. […] All readings were measured immediately at a wavelength of 450 nm. From the readings of the standards, a standard curve was plotted using curve fitting software. Then, the concentrations for unknown samples and controls were measured from the standard curve.

N#C/C(=C\c1cn(-c2ccccc2)nc1-c1ccc([N+](=O)[O-])cc1)C(=O)c1c[nH]c2ccccc12 [Compound 7f, (E)-2-(1H-Indole-3-carbonyl)-3-(3-(4-nitrophenyl)-1-phenyl-1H-pyrazol-4-yl)acrylonitrile]
Selectivity index (SI) = IC50 in normal cells/IC50 in tumor cells ([1]; HFB4 versus HCT116): 8.4 | IC50 ([1]; Homo sapiens, HCT-116, MTT, 48 h treatment): 6.76 µg/mL (≈ 14.7 µM) | RT-PCR fold change p53 [2]: 5.435 fold | caspase 3 production, fold compared to control [3]: 4.8 fold | caspase 3 protein production ([3]; control cells 103.5 pg/ml): 504.1 pg/mL

From publication PMC10728220, “Novel 3-(pyrazol-4-yl)-2-(1H-indole-3-carbonyl)acrylonitrile derivatives induce intrinsic and extrinsic apoptotic death mediated P53 in HCT116 colon carcinoma” (Scientific Reports, 2023)
